# Reference: patent publication US9969758B2, “Antimicrobial compounds” (BIOMERIEUX, priority 2014, dated 2018)
# Key:
# Assay in all cases: MIC by agar dilution
# [1] = tested on: methicillin-sensitive Staphylococcus aureus; assay type: cell-based; details: MSSA (13)
# Procedure, shortened: (§1)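 Agar dilution in peptone-free medium with 2% saponin-lysed horse blood, 25.0 μg/mL NAD and 25.0 μg/mL hemin; compounds at 0.016–32 μg/mL for gram-positives. Inoculum 10 000 CFU/spot; plates incubated 22 hours at 37° C, at least two independent replicates.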
# [2] = tested on: glycopeptide-resistant enterococci; assay type: cell-based
# Procedure, shortened: as §1
# [3] = tested on: All Enterococci (50); assay type: cell-based; details: All Enterococci (50)
# Procedure, shortened: as §1
# [4] = tested on: methicillin-resistant Staphylococcus aureus; assay type: cell-based
# Procedure, shortened: as §1
# [5] = tested on: carbapenemase-producing Enterobacteriaceae; assay type: cell-based
# Procedure, shortened: (§2)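 Agar dilution on peptone-free medium with 2% lysed horse blood, NAD and hemin (25.0 μg/mL each), compounds 0.0031 to 8.0 μg/mL; inoculum 10 000 CFU/spot, 22 h at 37° C. Fosfomycin tested in IsoSensitest medium plus 25.0 μg/mL glucose-6-phosphate; at least two replicates.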
# [6] = tested on: Enterobacteriaceae with a broad-spectrum β-lactamase; assay type: cell-based
# Procedure, shortened: as §2
# [7] = tested on: Enterobacteriaceae (197); assay type: cell-based; details: Enterobacteriaceae (197)
# Procedure, shortened: as §2
# [8] = tested on: Citrobacter (n=9); assay type: cell-based
# Procedure, shortened: as §2
# [9] = tested on: K. pneumoniae (87); assay type: cell-based, Klebsiella pneumoniae; details: Klebsiella pneumoniae
# Procedure, shortened: as §2
# [10] = tested on: E. faecium (34); assay type: cell-based, Enterococcus faecium
# Procedure, shortened: as §1
# [11] = tested on: S. marcescens (n=1); assay type: cell-based, Serratia marcescens
# Excerpt: (§3) Bacterial isolates. […] These included Citrobacter freundii (n=5), other species of Citrobacter (n=4), Enterobacter aerogenes (n=1), Enterobacter cloacae (n=27), Escherichia coli (n=53), Klebsiella oxytoca (n=5), Klebsiella pneumoniae (n=87), Kluyvera spp (n=1), Proteus mirabilis (n=8), Providencia rettgeri (n=2), Salmonella spp (n=3), and Serratia marcescens (n=1). Among these 197 isolates, there were 128 (65%) carbapenemase producers, including; 87 with NDM-1, 9 with IMP, 11 with KPC, 14 with OXA-48 and 7 with VIM. The majority of the carbapenemase producers jointly produced broad-spectrum β-lactamases (BSBL) or cephalosporinases (AmpC β-lactamases), but the latter are not documented for the sake of clarity.
# (§4) Determining the minimum inhibitory concentrations (MIC). All the MICs were determined using an agar dilution method. This required use of a medium without a defined antagonist (peptone-free), prepared as described previously with the inclusion of 2% horse blood lysed with saponin, 25.0 μg/mL of NAD and 25.0 μg/mL of hemin [17]. […] The MICs of fosfomycin were determined by the same method, except that the IsoSensitest medium (Oxoid, Basingstoke, United Kingdom) was used, plus 25.0 μg/mL of glucose-6-phosphate (Sigma, Poole, United Kingdom) and an extended range of fosfomycin concentrations. […]
# [12] = tested on: Kluyvera sp. (n=1); assay type: cell-based, Kluyvera spp
# Excerpt: as §3, §4
# [13] = tested on: E. cloacae (27); assay type: cell-based, Enterobacter cloacae
# Procedure, shortened: as §2
# [14] = tested on: E. aerogenes (n=1); assay type: cell-based, Enterobacter aerogenes
# Excerpt: as §3, §4
# [15] = tested on: K. oxytoca; assay type: cell-based, Klebsiella oxytoca; details: Klebsiella oxytoca; one of the five isolates of K. oxytoca
# Excerpt: as §3, §4
# [16] = tested on: E. faecalis (11); assay type: cell-based, Enterococcus faecalis; details: Enterococcus faecalis, E. faecalis (11)
# Procedure, shortened: as §1
# [17] = tested on: E. coli (53); assay type: cell-based, Escherichia coli
# Procedure, shortened: as §2
# [18] = tested on: All S. aureus (50); assay type: cell-based, Staphylococcus aureus; details: All S. aureus (50)
# Procedure, shortened: as §1
# [19] = Staphylococcus aureus, read-out: MIC50
# [20] = Staphylococcus aureus, read-out: MIC90
# [21] = Staphylococcus aureus, read-out: Modal MIC (most frequent MIC)
# [22] = read-out: Modal MIC (most frequent MIC)
smiles,measurement,setting,value
"C[C@H](N)C(=O)N[C@@H](C)P(=O)(O)O [Alafosfalin, L-alanyl-L-1-aminoethylphosphonic acid]",MIC Range,[1],0.25 to 16 µg/mL
same,MIC50,[1]; [19],4 µg/mL
same,MIC90,[1]; [20],8 µg/mL
same,MIC,[1]; [21],4 µg/mL
same,MIC50,[2],16 µg/mL
same,MIC90,[2],> 32 µg/mL
same,MIC,[2]; [22],16 µg/mL
same,MIC50,[3]; read-out: MIC50,16 µg/mL
same,MIC90,[3]; read-out: MIC90,> 32 µg/mL
same,MIC,[3]; [22],8 µg/mL
same,MIC90,[4]; MRSA (37),8 µg/mL
same,MIC Range,[4]; MRSA (37),0.125 to 16 µg/mL
same,MIC50,"[4]; Staphylococcus aureus, MRSA",4 µg/mL
same,MIC90,"[4]; Staphylococcus aureus, MRSA",8 µg/mL
same,MIC,"[4]; Staphylococcus aureus, MRSA, read-out: Modal MIC (most frequent MIC)",4 µg/mL
same,MIC50,[5],1 µg/mL
same,MIC90,[5],4 µg/mL
same,MIC,[5]; [22],2 µg/mL
same,MIC50,[6],2 µg/mL
same,MIC90,[6],> 8 µg/mL
same,MIC,[6]; [22],2 µg/mL
same,MIC50,[7]; read-out: MIC50,2 µg/mL
same,MIC90,[7]; read-out: MIC90,> 8 µg/mL
same,MIC,[7]; [22],2 µg/mL
same,concentration to which all the isolates were sensitive,[8],≤ 4 µg/mL
same,MIC50,"[9]; K. pneumoniae (87), read-out: MIC50",2 µg/mL
same,MIC90,"[9]; K. pneumoniae (87), read-out: MIC90",> 8 µg/mL
same,MIC,"[9]; K. pneumoniae (87), read-out: Modal MIC (most frequent MIC)",2 µg/mL
same,percent of isolates inhibited at 8 µg/mL,"[9]; K. pneumoniae isolates, at 8 μg/mL, read-out: isolates inhibited",87%
same,concentration by which all isolates were inhibited,[10]; 34 E. faecium isolates (including 31 vancomycin-resistant),32 µg/mL
same,MIC Range,[10]; E. faecium (34),4 to 32 µg/mL
same,MIC50,"[10]; Enterococcus faecium, E. faecium (34), read-out: MIC50",16 µg/mL
same,MIC90,"[10]; Enterococcus faecium, E. faecium (34), read-out: MIC90",16 µg/mL
same,MIC,"[10]; Enterococcus faecium, E. faecium (34), read-out: Modal MIC (most frequent MIC)",16 µg/mL
same,concentration to which all the isolates were sensitive,[11],≤ 4 µg/mL
same,concentration to which all the isolates were sensitive,[12],≤ 4 µg/mL
same,activity relative to fosfomycin,[13]; E. cloacae,~32 times
same,MIC Range,[13]; E. cloacae (27),0.125 to 4 µg/mL
same,concentration by which all the isolates were inhibited,[13]; E. cloacae isolates (n=27),4 µg/mL
same,MIC50,"[13]; Enterobacter cloacae, E. cloacae (27), read-out: MIC50",1 µg/mL
same,MIC90,"[13]; Enterobacter cloacae, E. cloacae (27), read-out: MIC90",1 µg/mL
same,MIC,"[13]; Enterobacter cloacae, E. cloacae (27), read-out: Modal MIC (most frequent MIC)",1 µg/mL
same,concentration to which all the isolates were sensitive,[14],≤ 4 µg/mL
same,MIC,[15],> 8 µg/mL
same,MIC50,[16]; read-out: MIC50,8 µg/mL
same,MIC90,[16]; read-out: MIC90,32 µg/mL
same,MIC,[16]; [22],8 µg/mL
same,concentration by which growth of all the isolates was inhibited,[17]; 53 isolates of E. coli,2 µg/mL
same,activity relative to that of fosfomycin,[17]; E. coli,approximately four
same,MIC Range,[17]; E. coli (53),≤0.031-2 ^ μg/mL
same,MIC50,"[17]; Escherichia coli, E. coli (53), read-out: MIC50",0.125 µg/mL
same,MIC90,"[17]; Escherichia coli, E. coli (53), read-out: MIC90",0.25 µg/mL
same,MIC,"[17]; Escherichia coli, E. coli (53), read-out: Modal MIC (most frequent MIC)",0.063 µg/mL
same,MIC Range,[18],0.125 to 16 µg/mL
same,MIC50,[18]; [19],4 µg/mL
same,MIC90,[18]; [20],8 µg/mL
same,MIC,[18]; [21],4 µg/mL
